This is an account of results in patent publication US6562806B1, “Pyrrolobenzodiazepines” (Spirogen Limited, priority 1998, dated 2003).

Like-named read-outs stand apart in the source and are kept apart here.

A word on the IC50: it is the point on the concentration scale where inhibition reaches its midpoint.

Data set [1] is described as follows: UVA (365 nm) cleavage of photolabile NVOC group monitored by HPLC. The data set is classed as physicochemical. The procedure:
This experiment involved the irradiation of compound 11, see example 3, in DMF at a concentration of 1 mM using a Stratagene UVA Crosslinker(365 nm). Small aliquots (100 μL) were removed at 30 minutes, 1 hour, 2 hours and 3 hours and the cleavageof the photolabile NVOC group was monitored by HPLC, using a Waters C4, 300 angstrom reversed phase column and a mobile phase of 50% methanol/50% water. Compound 11 has a retention time of 11.25 minutes and upon radiation produced a new peak with a retention time of 8.58 minutes. Authentic benzyl DC-81 has an identical retention time of 8.58 minutes. Complete conversion is achieved by 2 hours of irradiation at 365 nm under the conditions employed.

The test system of data set [2] is K562 cells. The data set is described as follows: MTT growth inhibition of K562 cells by irradiated aliquots. The data set is classed as cell-based, human. The procedure:
An MTT assay was used to evaluate the ability of aliquots of the activated analogues, which were removed at time intervals, to inhibit the growth of chronic human histiocytic leukaemia K562 cells in culture. Following treatment of cells with a range of drug doses, cells were transferred to 96-well microtitre plates, 10^4 cells per well, 8 wells per sample. Plates were incubated at 37° C. in a humidified atmosphere containing 5% CO2. The assay is based on the ability of viable cells to reduce a yellow soluble tetrazolium salt 3-(4,5-dimethylthiazolyl)-2,5-diphenyltetrazolium bromide (MTT), to an insoluble purple formazan precipitate. Following incubation of the plates for 4 days (to allow control cells to increase 10-fold in number), 20 μL of a 5 mg/mL solution of MTT in phosphate-buffered saline was added to each well and the plates were incubated for a further 5 hours. The plates were then centrifuged for 5 minutes at 300 g and the bulk of the medium was removed from the cell pellet. DMSO (200 μL) was added to each well, and the samples agitated to ensure complete mixing. The optical density was then measured at a wavelength of 550 nm on a Titertek Multiscan ELISA plate reader and expressed as a percentage of the control optical density. For each curve, an IC50 value was read as the dose required to reduce the final optical density to 50% of the control value.

Data set [3] deals with SW1116 cells. The data set is described as follows: Nitroreductase-activation cytotoxicity, SRB assay, SW1116 cells. In kind it is cell-based, human. The procedure: (§1) Compound 7, synthesized according to example 1, was evaluated in two different cell lines, namely SW1116 and LS174T. Both SW1116 and LS174T are human adenocarcinoma colonic cell lines, which were grown at Charing Cross hospital. The cells, at a concentration of 2500 cells/ml, were plated in 96-well microtitre plates, and were incubated at 37° C. for 1 hour with different concentrations of the prodrug, in the presence or absence of E. coli nitroreductase-monoclonal antibody conjugate in phosphate buffer saline (available from Sigma), and NADH (the co-factor necessary for enzyme function) in DMSO. The cells were then washed and incubated for a further 3 days at 37° C. At the end of this period, the cells were fixed (TCA) and stained. The concentration of the remaining viable cells adhering to the plates was quantified by a sulforhodamine B (SRB) dye. The control sets of cells treated with the prodrug alone were used in order to evaluate the cytotoxicity of the compound prior to enzymatic activation.
(In general: In SRB staining, fixed cells bind dye roughly in proportion to their protein.)

Data set [4] has as its system LS174T cells. Kind of data set: Nitroreductase-activation cytotoxicity, SRB assay, LS174T cells. In kind it is cell-based, human. The procedure:
as §1

Data set [5] deals with SW1116 and LS174T cell lines. Kind of data set: Nitroreductase-activation cytotoxicity, SRB assay, 'same cell lines' (value not assigned to one line). In kind it is cell-based, human. The procedure: as §1
Data set [6] relates to A2780cisR. The data set is described as follows: Ovarian cell line cytotoxicity, SRB, 96 hours. The data set is classed as cell-based. The procedure: (§2) Compounds 52 (UP 2073) and the comparative compound 55b (UP2090) were evaluated for their cytotoxic activity in ovarian cell lines by Dr Lloyd R. Kelland's group at The Institute of Cancer Research, Sutton, UK. The five cell lines investigated were SKOV-3, A2780/A2780cisR and CH1/CH1cisR (cisR denotes that the cell line is resistant to cisplatin).
(§3) Single viable cells were seeded in growth medium (160 μL) in 96-well microtitre plates and allowed to attach overnight. The test compounds were then dissolved in DMSO (to give 20 mM drug concentrations) immediately prior to adding the cells in quadruplicate wells. The final drug concentrations in the wells ranged from 100 μM to 2.5 nM as follows:100, 25, 10, 2.5, 1 μM, 250, 100, 25, 10, 2.5 nM (drugs were diluted in growth medium and then 40 μL added to the existing well volume of 160 μL to give final concentrations as above). After 96 hours, the medium was removed and the remaining cells fixed by exposure to 10% trichloroacetic acid on ice for 30 minutes. The wells were then washed 3-4 times with tap water, air dried overnight and treated with 100 μL of sulphorhodamine B (0.4%) dissolved in 1% acetic acid. Staining was allowed to continue for 10-15 minutes, then the wells were washed 3-4 times with 1% acetic acid, air dried and then added to Tris base (100 μL of 10 mM). Plates were then shaken and absorbance readings at […] were determined using a plate reader. The IC50 values were calculated from plots of concentration versus percentage absorbance (compared with 8 untreated wells).

The subject of data set [7] is A2780. The data set is described as follows: Ovarian cell line cytotoxicity, SRB, 96 hours. The note with it: Homo sapiens; A2780, 96 hours. In kind it is cell-based. The procedure: as §2, §3
Data set [8] has as its system CH1cisR. The data set is described as follows: Ovarian cell line cytotoxicity, SRB, 96 hours. The data set is classed as cell-based. How it is done:
as §2, §3

Data set [9] concerns CH1. The data set is described as follows: Ovarian cell line cytotoxicity, SRB, 96 hours. In kind it is cell-based. The settings on record: Homo sapiens; CH1, 96 hours. How it is done: as §2, §3
The test system of data set [10] is SKOV3. Kind of data set: Ovarian cell line cytotoxicity, SRB, 96 hours. The note with it: Homo sapiens, SK-OV-3; SKOV3, 96 hours. The data set is classed as cell-based. How it is done: as §2, §3
The mark [11] stands for this setting: LS174T, E. coli nitroreductase-antibody conjugate + NADH, read-out: IC50 in the presence of the enzyme and co-factor.
[12] abbreviates: irradiation time 0 hours, DMF at 1 mM initial drug concentration.
Where [13] appears, read: irradiation time 0 hours, DMF at 10 mM initial drug concentration.

Consider “1,1′-[[(Propane-1,3-diyl)dioxy]bis[[2-(2,3-dimethoxy-5-nitrobenzyloxycarboxamido)]bis[(11aS)-7-methoxy-1,2,3,11a-tetrahydro-11-hydroxy-5H-pyrrolo[1,2-c][1,4]benzodiazepine-5-one [Compound 32]”, for which, in data set [1] (HPLC data (not shown)), the “irradiation time to almost complete conversion” value was at most 2 h. Further, the “irradiation time to complete conversion” value in [1] (HPLC data (not shown), dimer prodrug experiments) was at most 5 h. Besides, the IC50 worked out at 4500 nM in data set [2] (dimer series (FIG. 9), irradiation time 0 hours, footnote DMF at 1 mM, FIG. 9 legend methanol); 1900 nM in data set [2] (dimer series (FIG. 9), irradiation time 0.5 hours, footnote DMF at 1 mM, FIG. 9 legend methanol); 1750 nM in [2] (dimer series (FIG. 9), irradiation time 1.0 hours, footnote DMF at 1 mM, FIG. 9 legend methanol); 1250 nM in [2] (dimer series (FIG. 9), irradiation time 2.0 hours, footnote DMF at 1 mM, FIG. 9 legend methanol); 850 nM in [2] (dimer series (FIG. 9), irradiation time 5.0 hours, footnote DMF at 1 mM, FIG. 9 legend methanol).

With `COc1cc2c(cc1OCc1ccccc1)N(C(=O)OCc1ccc([N+](=O)[O-])cc1)C(O)[C@@H]1CCCN1C2=O` (stereo partly drawn) [Compound 7, (11aS)-8-benzyloxy-7-methoxy-1,2,3,10,11,11a-hexahydro-11-hydroxy-10-(p-nitrobenzyloxy)carboxy-5H-pyrrolo[2,1-c][1,4]-benzodiazepine-5-one], the IC50 in [3] (SW1116, E. coli nitroreductase-antibody conjugate + NADH, read-out: IC50 in the presence of the enzyme and co-factor) fell in the range of 1000 to 5000 nM; in data set [4] (setting [11]) it was 1000 to 5000 nM; in [5] (after addition of enzyme conjugate and NADH, cell line not specified, read-out: IC50 of the nitroreductase-activated prodrug), 1000 to 5000 nM. Moreover, the “toxicity of the prodrug alone” value is “essentially non-toxic” in data set [3] (SW1116 cells, no enzyme, concentrations of up to 500 μM) and “slight toxicity” in data set [4] (LS174T cells, no enzyme, concentrations higher than 100 μM). The “difference between IC50 of parent drug and nitroreductase-activated prodrug” value in [5] (parent benzyl DC-81 vs activated prodrug) was 20-100 fold.

Consider `COc1cc(COC(=O)N2c3cc(OCc4ccccc4)c(OC)cc3C(=O)N3CCC[C@H]3C2O)c([N+](=O)[O-])cc1OC` (stereo partly drawn) [Compound 11, (11aS)-8-benzyloxy-7-methoxy-1,2,3,10,11,11a-hexahydro-11-hydroxy-10-(21-nitro-4′,5′-dimethoxybenzyloxy)carboxy-5H-pyrrolo[2,1-c][1,4]-benzodiazepine-5-one], for which the “irradiation time to complete conversion” value in data set [1] (DMF, 1 mM, 365 nm, HPLC) was at most 2 h. The IC50 in [2] (setting [12]) was 47500 nM; in [2] (setting [13]) it was 48500 nM; in [2] (irradiation time 0.5 hours, DMF at 1 mM initial drug concentration), 980 nM; in data set [2] (irradiation time 0.5 hours, DMF at 10 mM initial drug concentration) it was 4330 nM; in data set [2] (irradiation time 0.5 hours, FIG. 8: DMF at 1 mM, text says methanol) it was 4500 nM; in data set [2] (irradiation time 1.0 hours, DMF at 1 mM initial drug concentration) it was 600 nM. In addition, the half-inhibitory concentration (IC50) in data set [2] (irradiation time 1.0 hours, DMF at 10 mM initial drug concentration) stood at 2170 nM; in [2] (irradiation time 1.0 hours, FIG. 8: DMF at 1 mM, text says methanol), 4000 nM; in data set [2] (irradiation time 2.0 hours, DMF at 1 mM initial drug concentration) it was 600 nM; in data set [2] (irradiation time 2.0 hours, DMF at 10 mM initial drug concentration) it was 1750 nM; in data set [2] (irradiation time 2.0 hours, FIG. 8: DMF at 1 mM, text says methanol), 3200 nM.

As for `CC=C1C[C@H]2C(O)N(C(=O)OCc3ccc([N+](=O)[O-])cc3)c3cc(OCc4ccccc4)c(OC)cc3C(=O)N2C1` (stereo partly drawn) [Compound 24, (11aS)-8-benzyloxy-7-methoxy-1,3,10,11,11a-tetrahydro-2-ethylidene-11-hydroxy-10-(p-nitrobenzyloxy)carboxy-5H-pyrrolo[2,1-c][1,4]-benzodiazepine-5-one], the IC50 in data set [5] (Homo sapiens, after addition of enzyme conjugate and NADH, cell line not specified, read-out: IC50 of the nitroreductase-activated prodrug) amounted to 6400 nM; in [5] (Homo sapiens, no enzyme, average of two experiments, cell line not specified, read-out: IC50 of prodrug alone) it was 86200 nM. In addition, the activation factor result in data set [5] (IC50 without / with enzyme conjugate and NADH) is reported as “approximately 13.5”.

Take `COc1cc2c(cc1OCCCOc1cc3c(cc1OC)C(=O)N1CCC[C@H]1C(O)N3C(=O)OCc1ccc([N+](=O)[O-])cc1)N(C(=O)OCc1ccc([N+](=O)[O-])cc1)C(O)[C@@H]1CCCN1C2=O` (some centres unmarked) [Compound 30]: the half-maximal inhibitory concentration (IC50) in [4] (LS174T, no enzyme, average of two measurements, read-out: IC50 of prodrug alone) stood at 215000 nM; in data set [4] (setting [11]), 13700 nM. Moreover, the activation factor in data set [4] (LS174T, IC50 without / with enzyme and co-factor) is on record as 15-16 fold.

Take `COc1cc2c(cc1OCCCOc1cc3c(cc1OC)C(=O)N1CCC[C@H]1C=N3)N=C[C@@H]1CCCN1C2=O` [DSB-120, reference compound]: the concentration for half-maximal inhibition (IC50) is 0.5 nM in data set [4] (Homo sapiens, LS174T, read-out: cytotoxicity (IC50) of the parent agent) and 550 nM in [2] (Homo sapiens, K562, light or radiation study, dimer series (FIG. 9), irradiation time 0 hours, footnote DMF at 1 mM, FIG. 9 legend methanol).

Take `COc1cc2c(cc1OC)C(=O)N1CCC[C@H]1C=N2` [UP2025]: the entries for the “RF (resistance factor)” value in [6] (A2780cisR divided by A2780) and in data set [8] (CH1cisR divided by CH1) were 2.4 and 1.3, respectively. In addition, the IC50 was determined as 155 nM in data set [6] (Homo sapiens, A2780cisR (cisplatin resistant), 96 hours); 64 nM in data set [7]; 110 nM in data set [8] (Homo sapiens, CH1cisR (cisplatin resistant), 96 hours); 82 nM in [9]; 1700 nM in [10].

With `COc1cc2c(cc1OCc1ccccc1)N=C[C@@H]1CCCN1C2=O` [benzyl DC-81, reference compound], the IC50 in [5] (same cell lines, same conditions, read-out: IC50 of the parent drug) worked out at 8 nM; in [2] (setting [12]), 500 nM; in data set [2] (setting [13]) it was 500 nM; in data set [2] (irradiation time 0 hours, FIG. 8: DMF at 1 mM, text says methanol) it was 500 nM.
